Source: patent US20060276433A1, “Hydrazone derivative” (priority 2003, published 2006)

Assays:
[1] = target: T1, amyloid β-protein (human, 1-40) (Homo sapiens, UniProt P05067); test: Effect on amyloid formation of various amyloid forming proteins (Thioflavine T method): Aβ1-40; format: biochemical; conditions: Aβ1-40 10 μM, PBS(−), room temperature, sampled next day; read-out: IC50 (50% inhibition concentration of amyloid formation), Aβ1-40
[2] = target: partial fragment of prion protein (PrP 118-135) (Homo sapiens, UniProt P04156); test: biochemical
[3] = target: Amyloid β-protein (human, 1-42) (Homo sapiens, UniProt P05067); test: Effect on amyloid formation of various amyloid forming proteins (Thioflavine T method): Aβ1-42; format: biochemical; conditions: Aβ1-42 10 μM, PBS(−), room temperature, sampled next day; read-out: IC50 (50% inhibition concentration of amyloid formation), Aβ1-42
Amyrin = target: T2, Amyrin (Homo sapiens, UniProt P10997); test: Effect on amyloid formation of various amyloid forming proteins (Thioflavine T method): Amyrin; format: biochemical; conditions: Amyrin 10 μM, PBS(−), room temperature, sampled next day; read-out: IC50 (50% inhibition concentration of amyloid formation), Amyrin
T2 construct: Amyrin (10 μM; purchased from Bachem), as an amyloid forming protein; purchased Bachem
T2 sequence (P10997 34-70 limits assumed): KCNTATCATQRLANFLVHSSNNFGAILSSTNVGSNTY

[4] = target: T1, amyloid β-protein (human, 1-40); test: Effect of drugs on the amyloid formation of amyloid β-protein (Thioflavine T method); format: biochemical; conditions: read-out: IC50 value (50% inhibition concentration of amyloid formation)
Experimental: Thereafter, the quantity of amyloid formation was measured by the Thioflavine T method (Naiki et al., Lab Invest, 65, 104-110, 1991). The measured value was converted to a relative value (%) based on the quantity of amyloid formation in the drug-non-added control group, and then 50% inhibition concentration (IC50 value) of amyloid formation was calculated.

[5] = tested on: amyloid (senile plaque) in human Alzheimer disease brain sections; test: Specific binding to amyloid in Alzheimer disease brain sections (fluorescence microscopy); conditions: 50 μM in TBS, formalin-fixed human Alzheimer disease brain sections, fluorescence microscope
Experimental: Specific Binding to Amyloid
The compound of Example 21 having fluorescence was dissolved in TBS at a concentration of 50 μM and incubated with formalin-fixed human Alzheimer disease brain sections (purchased from BioChain). Thereafter, the sections were washed with saturated lithium carbonate/40% ethanol, dried and then observed under a fluorescence microscope.
Thus, it was shown that the compound of the present invention can specifically bind to amyloid in the Alzheimer brain.

[6] = 15 μM amyloid β-protein (human, 1-40), PBS(−), room temperature, 1 day, drug 1.6, 8 or 40 μM

T1 sequence (P05067 18-40): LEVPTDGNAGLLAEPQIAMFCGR
Sequence of Amyloid β-protein (human, 1-42) (P05067 18-42): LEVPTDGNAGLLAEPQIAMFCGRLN

C(=NNc1ccc(-c2cnco2)cc1)c1ccncc1 [Example 3, 4-Pyridinecarboxyaldehyde 4-(oxazol-5-yl)phenylhydrazone]
IC50 [1]: 1160 nM | IC50 [2]: 1970 nM | IC50 [3]: 700 nM | IC50 (Amyrin): 2080 nM | IC50 [4, 6]: 2940 nM

Cc1ccc2nc(-c3ccc(N/N=C/c4ccncc4)cc3)sc2c1 [Example 21, 4-Pyridinecarboxyaldehyde 4-(6-methylbenzothiazol-2-yl)phenylhydrazone]
Fluorescence binding to amyloid in brain sections [5]: accumulation of fluorescence was found in the senile plaque

Nc1c(/N=N/c2ccc(-c3ccc(/N=N/c4cc(S(=O)(=O)O)c5ccccc5c4N)cc3)cc2)cc(S(=O)(=O)O)c2ccccc12 [Congo Red, Congo red, reference compound]
IC50 [4, 6]: 870 nM

CC(=C(C#N)C#N)c1ccc2cc(N(C)C)ccc2c1 [DDNP]
IC50 [4]: 3230 nM
